The values below come from patent US20100035943A1, “Oxa-and thiadiazoles and their use as metalloproteinase inhibitors” (VERNALIS (OXFORD) LTD, priority 2002, published 2010).

One test addresses 92 kDa gelatinase (MMP9) (Homo sapiens, UniProt P14780). The experiment in a line: MMP9 enzyme inhibition assay (fluorogenic peptide substrate McaPLGLDpaAR). The class given is biochemical. The settings on record: recombinant human 92 kDa gelatinase, 37° C., 2 hours.
The target in another test is T1, collagenase (MMP1) (Homo sapiens, UniProt P03956).
T1 sequence (P03956 100-469): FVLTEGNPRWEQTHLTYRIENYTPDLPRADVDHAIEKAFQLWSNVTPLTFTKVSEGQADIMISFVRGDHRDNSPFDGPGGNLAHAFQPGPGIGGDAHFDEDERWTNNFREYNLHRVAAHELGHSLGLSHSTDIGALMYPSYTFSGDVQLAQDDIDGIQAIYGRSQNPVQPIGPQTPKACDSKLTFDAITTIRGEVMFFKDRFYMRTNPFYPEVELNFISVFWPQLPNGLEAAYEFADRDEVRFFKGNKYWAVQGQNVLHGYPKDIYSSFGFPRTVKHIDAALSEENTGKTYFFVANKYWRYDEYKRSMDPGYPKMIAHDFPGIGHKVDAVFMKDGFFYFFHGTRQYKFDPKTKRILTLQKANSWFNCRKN
Description: MMP1 enzyme inhibition assay (fluorogenic peptide substrate McaPLGLDpaAR). Conditions: protocol as for MMP9 assay. The class given is biochemical.

Test [1] relates to IL2-induced lymphocyte recruitment. The experiment in a line: IL2-induced peritoneal recruitment of lymphocytes. The class given is in vivo, C3H/HEN mice. The settings on record: mice, 15 min prior to IL2, cells counted 24 hours after IL2. The procedure:
Administration of IL2 intraperitoneally causes migration of lymphocytes into the intraperitoneal cavity. This is a model for the cellular migration that occurs during inflammation.
C3H/HEN mice (Elevage Janvier, France) were intraperitoneally injected with IL2 (Serono Pharmaceutical Research Institute, 20 μg/kg, in saline). Compounds of the invention were suspended in 0.5% carboxymethylcellulose (CMC)/0.25% tween-20 and were administered by sc or po route (10 ml/kg) 15 min prior to administration of IL2.
Twenty-four hours after administration of IL2, peritoneal white blood cells were collected by 3 successive lavages of the peritoneal cavity with 5 ml phosphate buffered saline (PBS)-1 mM EDTA (+4° C.). The suspension was centrifuged (1700 g×10 min at +4° C.). The resulting pellet was suspended in 1 ml PBS-1 mM EDTA.
Lymphocytes were identified and counted using a Beckman/Coulter counter.
The animals were divided into 5 groups (6 mice each group):
Group 1: (baseline) received 0.5% CMC/0.25% tween-20 (vehicle of compound of the invention) and saline (vehicle of IL2); Group 2: (control IL2) received 0.5% CMC/0.25% tween-20 and injection of IL2; Group 3: Experimental group (Compound of the invention Dose 1) received a compound of the invention and injection of IL2; Group 4: Experimental group (Compound of the invention Dose 2) received a compound of the invention and injection of IL2; Group 5: Experimental group (Compound of the invention Dose 3) received a compound of the invention and injection of IL2; Group 6: Reference group received reference compound dexamethasone and injection of IL2
Inhibition of lymphocyte recruitment was calculated as follows:
Where Ly 1=Number of lymphocytes in group 1 (E3/μl), Ly 2=Number of lymphocytes in group 2 (E3/μl), Ly X=Number of lymphocytes in group X (3-5) (E3/μl)
The dose of compound of the invention required to inhibit lymphocyte recruitment by 50% (ID50) was calculated using a curve-fitting routine.

Sequence of 92 kDa gelatinase (MMP9) (P14780 107-707 limits assumed): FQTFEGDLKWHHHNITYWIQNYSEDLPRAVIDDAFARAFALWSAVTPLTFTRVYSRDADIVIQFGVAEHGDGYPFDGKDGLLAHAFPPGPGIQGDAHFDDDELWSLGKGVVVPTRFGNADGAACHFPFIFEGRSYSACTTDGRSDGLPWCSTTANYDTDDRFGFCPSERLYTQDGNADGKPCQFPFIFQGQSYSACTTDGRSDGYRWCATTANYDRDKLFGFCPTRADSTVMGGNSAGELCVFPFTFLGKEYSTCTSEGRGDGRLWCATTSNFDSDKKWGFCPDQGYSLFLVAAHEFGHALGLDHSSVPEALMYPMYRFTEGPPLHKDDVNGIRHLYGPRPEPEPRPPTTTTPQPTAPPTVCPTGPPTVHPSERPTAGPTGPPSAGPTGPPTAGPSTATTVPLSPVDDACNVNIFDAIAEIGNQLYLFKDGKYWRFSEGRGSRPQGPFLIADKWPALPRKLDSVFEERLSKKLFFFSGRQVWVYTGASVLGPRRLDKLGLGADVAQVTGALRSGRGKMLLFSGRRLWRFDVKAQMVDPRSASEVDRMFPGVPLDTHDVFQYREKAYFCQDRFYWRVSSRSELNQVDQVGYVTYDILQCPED

In general, IC50 refers to the midpoint of a concentration-inhibition curve. Take `CC(C)C[C@@H](C(=O)N[C@H](c1noc(-c2cccs2)n1)C(C)(C)C)[C@H](O)C(=O)NO` [Example 13, 2S-Hydroxy-3R-[1S-(5-thiophen-2-yl-[1,2,4]oxadiazol-3-yl)-2,2-dimethyl-propylcarbamoyl]-5-methyl Hexanohydroxamic Acid]: the half-maximal inhibitory concentration (IC50) at 92 kDa gelatinase (MMP9) and against collagenase (MMP1) was 100 to 1000 nM throughout. Besides, the “ID50 for inhibition of IL2-induced peritoneal recruitment of lymphocytes” value in test [1] (Oral route) is 1 mg/kg; in test [1] (Subcutaneous route) it was 0.1 mg/kg.
